Results on one molecule are retold here after patent US20260184710A1, “CASITAS B-LINEAGE LYMPHOMA PROTOONCOGENE B (CBL-B) DEGRADING COMPOUNDS AND ASSOCIATED METHODS OF USE” (Arvinas Operations, Inc., priority 2022, published 2026).

The target of test [1] is T1, Cbl-b (Homo sapiens, UniProt Q13191).
T1 construct: Cbl-b-HiBit KI Jurkat Cells were purchased from Promega; host or cells: Cbl-b-HiBiT knock-in Jurkat cells
Kind of test: Cbl-b Degradation Method A (FACS, anti-Cbl-b antibody staining). The test is classed as cell-based. Conditions: Cbl-b-HiBit KI Jurkat Cells, incubated at least 20 hours. The method in brief: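 Cbl-b-HiBit KI Jurkat cells treated with compound for at least 20 h at 37 °C, then fixed, permeabilized and stained with anti-Cbl-b antibody plus anti-rabbit AF488 secondary. Cbl-b levels read by FACS; DC50 and Dmax (percent of control) derived.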
(The HiBiT peptide binds its large partner to form an active luciferase.)

Test [2] addresses T1, Cbl-b. Kind of test: Cbl-b Degradation Method B (Nano-Glo HiBiT lytic detection). The format is cell-based. Particulars: Cbl-b-HiBit KI Jurkat Cells, incubated at least 6-24 hours. The gist of the method: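 Cbl-b-HiBiT knock-in Jurkat cells (20,000/well) were treated after ~24 h plating with an 11-point 1:3 series for 6-24 h at 37° C. Remaining Cbl-b measured by Nano-Glo HiBiT lytic luminescence. DC50 and Dmax expressed as % of control.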

Broadly, the Dmax is the largest share of the target that was removed.

T1 sequence (Q13191 whole entry): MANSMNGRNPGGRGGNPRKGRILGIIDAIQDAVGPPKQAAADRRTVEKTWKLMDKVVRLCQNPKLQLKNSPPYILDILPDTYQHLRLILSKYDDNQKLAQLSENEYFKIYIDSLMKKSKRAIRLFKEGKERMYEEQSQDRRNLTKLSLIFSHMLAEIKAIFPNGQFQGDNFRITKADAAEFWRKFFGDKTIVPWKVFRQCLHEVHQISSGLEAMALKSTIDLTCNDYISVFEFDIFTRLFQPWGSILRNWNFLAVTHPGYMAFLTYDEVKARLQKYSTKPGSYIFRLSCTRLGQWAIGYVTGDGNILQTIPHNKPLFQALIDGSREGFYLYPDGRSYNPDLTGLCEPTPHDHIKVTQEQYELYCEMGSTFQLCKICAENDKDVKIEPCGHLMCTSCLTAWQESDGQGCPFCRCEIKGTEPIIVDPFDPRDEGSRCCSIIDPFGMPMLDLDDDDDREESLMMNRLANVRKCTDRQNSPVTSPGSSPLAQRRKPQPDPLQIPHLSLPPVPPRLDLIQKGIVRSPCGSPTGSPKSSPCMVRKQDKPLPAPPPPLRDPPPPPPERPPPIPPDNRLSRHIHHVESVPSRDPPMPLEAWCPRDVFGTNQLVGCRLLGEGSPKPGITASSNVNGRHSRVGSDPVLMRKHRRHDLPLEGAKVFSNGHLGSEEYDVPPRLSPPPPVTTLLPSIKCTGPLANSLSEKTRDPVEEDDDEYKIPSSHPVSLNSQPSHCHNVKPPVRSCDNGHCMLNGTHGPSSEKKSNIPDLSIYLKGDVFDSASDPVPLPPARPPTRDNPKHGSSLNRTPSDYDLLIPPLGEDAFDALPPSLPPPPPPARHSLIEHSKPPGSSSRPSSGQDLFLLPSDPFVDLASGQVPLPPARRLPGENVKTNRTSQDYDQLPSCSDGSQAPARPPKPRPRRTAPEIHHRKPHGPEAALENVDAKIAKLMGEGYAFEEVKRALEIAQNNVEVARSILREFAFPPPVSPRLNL

`CC(C)n1c(=O)n(C2CCC(=O)NC2=O)c2cccc(N3CCC(O[C@H]4CC[C@H](CN5CCC6(CC5)CN(Cc5cc7c(c(C(F)(F)F)c5)CN(c5cccc([C@]8(Cc9nncn9C)C[C@@H](C#N)C8)c5)C7=O)C6)CC4)CC3)c21` (stereo partly shown) [Example 320, (1r,3r)-3-[(4-methyl-4H-1,2,4-triazol-3-yl)methyl]-3-(3-{1-oxo-6-[(7-{[(1r,4r)-4-({1-[1-(2,6-dioxopiperidin-3-yl)-2-oxo-3-(propan-2-yl)-2,3-dihydro-1H-1,3-benzodiazol-4-yl]piperidin-4-yl}oxy)cyclohexyl]methyl}-2,7-diazaspiro[3.5]nonan-2-yl)methyl]-4-(trifluoromethyl)-2,3-dihydro-1H-isoindol-2-yl}phenyl)cyclobutane-1-carbonitrile]: the DC50 at Cbl-b [1] (half maximal degradation, read-out: Cbl-b Degredation Method A IC50) was 50 to 500 nM; at Cbl-b [2] (half maximal degradation, read-out: Cbl-b Degredation Method B IC50), less than 5 nM. In addition, the Dmax at Cbl-b [1] (Jurkat, maximum degradation observed, read-out: Cbl-b Degredation Method A Dmax (%)) is more than 70%. The “Cbl-b Degredation Method B Dmax (%)” value at Cbl-b [2] (maximum degradation observed) is reported as “C (C ≤ 35)”.
